Assay results as given in patent US10551379B2, “Methods and compositions for improving detection and/or capture of a target entity” (PRESIDENT AND FELLOWS OF HARVARD COLLEGE, priority 2013, dated 2020).
pKd: −log10 of the molar value.

Key:
FcMBL [1] = target: T1, FcMBL (Homo sapiens, UniProt P11226); assay: Binding affinity (Kd) of medium affinity ligands for FcMBL; conditions: read-out: Kd (medium affinity ligand of FcMBL)
Description: (§1) Without wishing to be bound by theory, this reduced background can be related to the prevention of FcMBL low affinity binding to erythrocytes (or other endogenous components in blood) by the medium affinity sugar that in turn can be displaced by the higher affinity targets such as mannan, lipopolysaccharides (LPS), and/or a microbe or fragment thereof.

FcMBL [2] = target: T1, FcMBL; assay: FcMBL ELISA capture in blood: background and haemocyte binding (FIGS. 3A-3B); conditions: for background of the FcMBL ELISA: ligand added to FcMBL prior to the capture of mannan in the presence of blood
Description: FIGS. 3A-3B are data graphs showing effects of adding a blocking agent (e.g., ˜10 mM glucose) on binding of a target entity (e.g., LPS) or an interfering agent (e.g., haemocytes) to a target-binding agent (e.g., FcMBL beads) in donor blood.
as §1

T1 sequence (P11226 with tags, fused parts or gaps limits assumed): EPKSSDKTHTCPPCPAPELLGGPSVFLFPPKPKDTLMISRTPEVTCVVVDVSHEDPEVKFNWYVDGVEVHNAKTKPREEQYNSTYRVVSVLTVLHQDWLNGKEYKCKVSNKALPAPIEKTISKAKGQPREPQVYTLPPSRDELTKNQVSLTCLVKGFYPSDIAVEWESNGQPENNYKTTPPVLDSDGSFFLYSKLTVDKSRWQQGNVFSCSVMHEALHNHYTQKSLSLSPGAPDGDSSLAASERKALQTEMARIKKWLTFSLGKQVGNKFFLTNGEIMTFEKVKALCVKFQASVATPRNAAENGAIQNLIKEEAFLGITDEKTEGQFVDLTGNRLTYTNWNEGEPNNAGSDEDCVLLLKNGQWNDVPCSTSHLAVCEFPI

Row | Molecule | pKd (FcMBL [1]) | background of the FcMBL ELISA (FcMBL [2]) | background by binding of erythrocytes or other endogenous blood components to FcMBL (FcMBL [2]; addition of a small amount of mannan)
1 | OC[C@H]1O[C@H](O[C@H]2[C@H](O)[C@@H](O)C(O)O[C@@H]2CO)[C@H](O)[C@@H](O)[C@@H]1O (mixture of isomers) [maltose] | 1.82 | decreases the background | –
2 | mannan | – | – | decrease the background
3 | CC(=O)N[C@H]1C(O)O[C@H](CO)[C@@H](O)[C@@H]1O[C@H](C)C(=O)O (some centres unmarked) [N-acetyl Muramic acid] | 1.77 | decreases the background | –
